Test system: ASD patients
Assay: Phase IIa clinical trial (REIMAGINE), ASD cohort treated with vafidemstat for 8 weeks
Type: in vivo, human
Conditions: 1.2 mg/day oral
Text: As part of a Phase II a clinical trial (REIMAGINE trial, EudraCT number 2018-002140-88) to evaluate the safety, tolerability and efficacy of vafidemstat to treat aggression in adult population in patients with different CNS disorders, a cohort of ASD patients was recruited and treated with vafidemstat for 8 weeks. A summary of the protocol of this clinical trial and results obtained in the ASD cohort are provided below.
Reimagine is a unicenter, open-label, 1-arm, 8-week clinical study to evaluate the efficacy, safety and tolerability of vafidemstat in aggression in adult population with ASD, ADHD and BPD.
Main objective of the trial: To evaluate the safety and tolerability of vafidemstat in adult population with ASD ADHD and BPD.
Secondary objectives of the trial: To investigate the efficacy of vafidemstat in aggression in adult population with ASD ADHD and BPD.
Main inclusion criteria: • age 18-85 • current diagnosis for ASD, ADHD or BPD according to DSM-5 criteria • significant or persistent agitation or aggression that was disruptive to patient's daily living or put the patient in harm's way for at least 3 days per week for at least 4 weeks prior to screening visit
Treatment: All patients received vafidemstat (as free base) at a dose of 1.2 mg/day, administered orally as a single capsule, in a 5 days on/2 days off schedule, during 8 weeks.
Six ASD patients were recruited, but there was one drop-out, and therefore the results as described herein correspond to the 5 ASD subjects eligible for analysis. A summary of the patients recruited in this ASD cohort (demographic data at baseline) can be found in Table 1.
Evaluation of the effect of treatment with vafidemstat on aggression was performed using the NPI A/A as well as the CGI-I and CGI-S scales. The NPI A/A subscale is based on the NPI and consists of the 4 items in the NPI related to aggression/agitation, namely: agitation/aggression, disinhibition, irritability and aberrant motor disturbance. The severity of each of the 4 items in the NPI A/A scale is rated from 1 to 3 (1=mild, 2=moderate, 3=severe) and the NPI A/A score is calculated as the sum of the scores for all 4 items. CGI values reflect clinician's ratings of patient's aggression severity (CGI-S scale) and improvement in aggression from the initiation (baseline) of the treatment (CGI-I scale). In the CGI-I scale, change from initiation of treatment is rated using a seven-point scale, where 1=very much improved since initiation of treatment, 7=very much worse since initiation of treatment, and 4=no change from baseline. In the CGI-S scale, illness/condition severity is rated using a seven-point scale, the higher the score, the more severe the illness/condition, with 1=normal, not at all ill and 7=among the most extremely ill patients.
In addition to assessing its effect on aggression, the effect of treatment with vafidemstat on ASD patients was also evaluated using the total NPI scale and the NPI non-aggression related combined score. The total NPI scale consists of 12 items relating to a variety of neuropsychiatric domains (namely: delusions, hallucinations, agitation/aggression, depression, anxiety, euphoria/elation, apathy/indifference, disinhibition, irritability, aberrant motor disturbance, nighttime behavior, and appetite/eating disorders) and was used to measure global functioning in ASD patients. The severity of each item in the NPI is rated from 1 to 3 (1=mild, 2=moderate, 3=severe) and the total NPI score is calculated as the sum of the scores for all 12 items. The NPI non-aggression related combined score is the NPI combined score for all other items in the NPI not related to aggression or agitation (8 items; namely: delusions, hallucinations, depression, anxiety, euphoria/elation, apathy/indifference, nighttime behavior, and appetite/eating disorders). […]

[1] = adult ASD patients, 5 days on/2 days off, 8 weeks

## Nc1nnc(CN[C@@H]2C[C@H]2c2ccc(OCc3ccccc3)cc2)o1 [Vafidemstat, 5-((((1R,2S)-2-(4-(benzyloxy)phenyl)cyclopropyl)amino)methyl)-1,3,4-oxadiazol-2-amine]
5 ASD patients, baseline vs 2 months of treatment, p=0.0019 (FIG. 4)
  total NPI score (12 items), visit 1 to visit 7: statistically significant reduction
5 ASD patients, baseline vs 2 months of treatment, p=0.0142 (FIG. 5)
  NPI non-aggression related combined score (8 items), visit 1 to visit 7: statistically significant reduction
5 ASD patients, baseline vs 8 weeks treatment, no paired test could be calculated (FIG. 3)
  CGI-S value, visit 1 to visit 7: reduction
5 ASD patients, baseline vs 8 weeks treatment, p=0.0019 (FIG. 2)
  CGI-I value, visit 1 to visit 7: statistically significant reductions
5 ASD patients, baseline vs 8 weeks treatment, p=0.0098 (FIG. 1)
  NPI A/A (4-item agitation/aggression subscale) value, visit 1 to visit 7: statistically significant reductions
[1]
  safety and tolerability: safe and well tolerated, without significant adverse events
  sedation: No sedation
n=6 ASD patients, baseline vs 8 weeks treatment, p=0.0006 (FIG. 6)
  CGI-S score, visit 1 to visit 7, cohort with one additional patient: statistically significant reduction

— patent publication US20240226069A1, “VAFIDEMSTAT FOR USE IN TREATING AUTISM SPECTRUM DISORDERS” (ORYZON GENOMICS, S.A., priority 2019, published 2024)
